Source: patent publication US12622975B2, “Peptide-conjugated prodrugs” (priority 2019, dated 2026)
Values after ≈ are worked out from the molar mass of the structure shown. Values joined by “and” are separate entries in the source; they are usually repeats but may differ in a detail not shown here. Equal values may be shown once. Numbered stars: 1 amine (or outer) side, 2 acyl side, 3 side chain; on linkers, the order of the positions; unused ones are H or OH. Square brackets hold non-standard residues; d marks the D form. Peptide text beside a SMILES is read from it. * marks the point of attachment. X1 = O=C(CCC(=O)[*:2])OCC(N[*:1])C(O)c1ccc([N+](=O)[O-])cc1; Dichloroacetyl = O=C(C(Cl)Cl)*

These compounds were tested on wild type E. coli strain (K-12) (assay: Bacteria culture and inhibitory activity assay (MIC)). Details: wild type E. coli (K-12).
Type: cell-based
Protocol: Bacteria culture and inhibitory activity assay: Single esterase (BioH, YjfP, FrsA, YbfF, YfbB, YqiA, YeiG, or and YpfH) deletion mutants were purchased from Dharmacon Horizon Discovery (Cambridge, United Kingdom). […] Compounds were added at different concentrations.
Compounds were added at different concentrations.

Q: How did the “MIC (μM)” value turn out when `CC(NC(=O)CNC(=O)CCC(=O)OCC(NC(=O)C(Cl)Cl)C(O)c1ccc([N+](=O)[O-])cc1)C(=O)O` (stereo not drawn) [Compound 1b] was run?
A: 20 µM (≈ 11 µg/mL)

Q: How did the “MIC (μM)” value turn out when `O=C(O)CNC(=O)CNC(=O)C(Cc1ccccc1)NC(=O)CCC(=O)OCC(NC(=O)C(Cl)Cl)C(O)c1ccc([N+](=O)[O-])cc1` (stereo not drawn) [Compound 1n] was run?
A: 80 µM (≈ 54.8 µg/mL)

Q: How did the “MIC (μM)” value turn out when `CC(NC(=O)C(C)NC(=O)C(C)NC(=O)CCC(=O)OCC(NC(=O)C(Cl)Cl)C(O)c1ccc([N+](=O)[O-])cc1)C(=O)O` (stereo not drawn) [Compound 1j] was run?
A: 100 µM (≈ 63.6 µg/mL)

Q: How did the “MIC (μM)” value turn out when `O=C(O)CNC(=O)CNC(=O)CNC(=O)CNC(=O)CCC(=O)OCC(NC(=O)C(Cl)Cl)C(O)c1ccc([N+](=O)[O-])cc1` (stereo not drawn) [Compound 1f] (Dichloroacetyl-[X1]GGGG-OH) was run?
A: 20 µM (≈ 13 µg/mL)

Q: For `O=C(O)CC(NC(=O)C(CC(=O)O)NC(=O)CCC(=O)OCC(NC(=O)C(Cl)Cl)C(O)c1ccc([N+](=O)[O-])cc1)C(=O)O` (stereo not drawn) [Compound 2h], which “MIC (μM)” value is on record?
A: >200 µM

Q: Which “MIC (μM)” value does the source give for `CNC(=O)CNC(=O)CNC(=O)CCC(=O)OCC(NC(=O)C(Cl)Cl)C(O)c1ccc([N+](=O)[O-])cc1` (stereo not drawn) [Compound 1e] here?
A: 20 µM (≈ 11 µg/mL)

Q: How did the “MIC (μM)” value turn out when `O=C(O)CC(NC(=O)CNC(=O)CCC(=O)OCC(NC(=O)C(Cl)Cl)C(O)c1ccc([N+](=O)[O-])cc1)C(=O)O` (stereo not drawn) [Compound 2j] was run?
A: 20 µM (≈ 11.9 µg/mL)

Q: How did the “MIC (μM)” value turn out when `N=C(N)NCCCC(NC(=O)C(CCCNC(=N)N)NC(=O)CCC(=O)OCC(NC(=O)C(Cl)Cl)C(O)c1ccc([N+](=O)[O-])cc1)C(=O)O` (stereo not drawn) [Compound 2a] was run?
A: 200 µM (≈ 147 µg/mL)

Q: For `N=C(N)NCCCC(NC(=O)C(CCCNC(=N)N)NC(=O)C(Cc1ccccc1)NC(=O)C(Cc1ccccc1)NC(=O)CCC(=O)OCC(NC(=O)C(Cl)Cl)C(O)c1ccc([N+](=O)[O-])cc1)C(=O)O` (stereo not drawn) [Compound 2d] (Dichloroacetyl-[X1]FFRR-OH; configuration not given here), which “MIC (μM)” value is on record?
A: 200 µM (≈ 206 µg/mL)

Q: Which results are given for `O=C(O)CNC(=O)CCC(=O)OCC(NC(=O)C(Cl)Cl)C(O)c1ccc([N+](=O)[O-])cc1` (stereo not drawn) [CLsuG]?
A: MIC (μM): >200 µM; MIC (μg/mL): > 95.8 µg/mL and 95.8 µg/mL

Q: How did the “MIC (μM)” value turn out when `CC(NC(=O)C(C)NC(=O)C(C)NC(=O)CCC(=O)OCC(NC(=O)C(Cl)Cl)C(O)c1ccc([N+](=O)[O-])cc1)C(=O)O` (stereo not drawn) [Compound 1i] was run?
A: 80 µM (≈ 50.9 µg/mL)

Q: For `O=C(CCC(=O)OCC(NC(=O)C(Cl)Cl)C(O)c1ccc([N+](=O)[O-])cc1)NC(Cc1ccccc1)C(=O)NC(Cc1ccccc1)C(=O)O` (stereo not drawn) [Compound 3a], which “MIC (μM)” value is on record?
A: 100 µM (≈ 71.8 µg/mL)

Q: Which “MIC (μM)” value does the source give for `CC(NC(=O)C(C)NC(=O)CCC(=O)OCC(NC(=O)C(Cl)Cl)C(O)c1ccc([N+](=O)[O-])cc1)C(=O)O` (stereo not drawn) [Compound 1h] here?
A: 100 µM (≈ 56.5 µg/mL)

Q: `O=C(O)CC(NC(=O)C(CC(=O)O)NC(=O)CCC(=O)OCC(NC(=O)C(Cl)Cl)C(O)c1ccc([N+](=O)[O-])cc1)C(=O)O` (stereo not drawn) [Compound 2i] was tested. Which “MIC (μM)” value did it give?
A: 200 µM (≈ 131 µg/mL)

Q: Which “MIC (μM)” value does the source give for `CC(C)CC(NC(=O)CNC(=O)CCC(=O)OCC(NC(=O)C(Cl)Cl)C(O)c1ccc([N+](=O)[O-])cc1)C(=O)O` (stereo not drawn) [Compound 1a] here?
A: 20 µM (≈ 11.9 µg/mL)

Q: For `O=C(O)CNC(=O)CNC(=O)CNC(=O)CNC(=O)CNC(=O)CCC(=O)OCC(NC(=O)C(Cl)Cl)C(O)c1ccc([N+](=O)[O-])cc1` (stereo not drawn) [Compound 1q] (Dichloroacetyl-[X1]GGGGG-OH), which “MIC (μM)” value is on record?
A: 40 µM (≈ 28.3 µg/mL)

Q: How did the “MIC (μM)” value turn out when `NCCCCC(NC(=O)C(CCCCN)NC(=O)C(Cc1ccccc1)NC(=O)C(Cc1ccccc1)NC(=O)CCC(=O)OCC(NC(=O)C(Cl)Cl)C(O)c1ccc([N+](=O)[O-])cc1)C(=O)O` (stereo not drawn) [Compound 2e] (Dichloroacetyl-[X1]FFKK-OH; configuration not given here) was run?
A: 200 µM (≈ 195 µg/mL)

Q: Which “MIC (μM)” value does the source give for `O=C(O)CCC(NC(=O)C(CCC(=O)O)NC(=O)CCC(=O)OCC(NC(=O)C(Cl)Cl)C(O)c1ccc([N+](=O)[O-])cc1)C(=O)O` (stereo not drawn) [Compound 2g] here?
A: >200 µM

Q: How did the “MIC (μM)” value turn out when `CC(NC(=O)C(C)NC(=O)CCC(=O)OCC(NC(=O)C(Cl)Cl)C(O)c1ccc([N+](=O)[O-])cc1)C(=O)O` (stereo not drawn) [Compound 1g] was run?
A: 80 µM (≈ 45.2 µg/mL)

Q: Which “MIC (μM)” value does the source give for `O=C(O)CNC(=O)C(Cc1ccccc1)NC(=O)CNC(=O)CCC(=O)OCC(NC(=O)C(Cl)Cl)C(O)c1ccc([N+](=O)[O-])cc1` (stereo not drawn) [Compound 1m] here?
A: 20 µM (≈ 13.7 µg/mL)
